Data reported in PMC6112376, “Comprehensive Analyses and Prioritization of Tox21 10K Chemicals Affecting Mitochondrial Function by in-Depth Mechanistic Studies” (Environmental Health Perspectives, 2018).
Like-named read-outs stand apart in the source and are kept apart here.

Legend:
[1] = system: Nrf2/ARE (ARE-bla HepG2 cells); test: ARE β-lactamase reporter gene assay; type: cell-based, human; conditions: 16 h incubation, mean±SD of three experiments
[2] = system: mitochondrial respiratory chain complex V; type: biochemical, rat
[3] = system: HeLa cells expressing YFP-Parkin; test: Parkin translocation assay; type: cell-based, human
HepG2 cells [4] = conditions: cited from earlier work
[5] = target: T1, mitochondrial respiratory chain complex II (Rattus norvegicus, UniProt P21913+Q641Z9+Q6PCT8+Q920L2); test: Respiratory chain complex II activity; type: biochemical; conditions: tested up to 100μM
T1 construct: Submitochondrial particles were prepared by subjecting the intact rat mitochondria, isolated as described above, to three successive freeze–thaw cycles; from tissue; host or cells: rat liver mitochondria (submitochondrial particles)
T1 sequence (Q920L2 35-656): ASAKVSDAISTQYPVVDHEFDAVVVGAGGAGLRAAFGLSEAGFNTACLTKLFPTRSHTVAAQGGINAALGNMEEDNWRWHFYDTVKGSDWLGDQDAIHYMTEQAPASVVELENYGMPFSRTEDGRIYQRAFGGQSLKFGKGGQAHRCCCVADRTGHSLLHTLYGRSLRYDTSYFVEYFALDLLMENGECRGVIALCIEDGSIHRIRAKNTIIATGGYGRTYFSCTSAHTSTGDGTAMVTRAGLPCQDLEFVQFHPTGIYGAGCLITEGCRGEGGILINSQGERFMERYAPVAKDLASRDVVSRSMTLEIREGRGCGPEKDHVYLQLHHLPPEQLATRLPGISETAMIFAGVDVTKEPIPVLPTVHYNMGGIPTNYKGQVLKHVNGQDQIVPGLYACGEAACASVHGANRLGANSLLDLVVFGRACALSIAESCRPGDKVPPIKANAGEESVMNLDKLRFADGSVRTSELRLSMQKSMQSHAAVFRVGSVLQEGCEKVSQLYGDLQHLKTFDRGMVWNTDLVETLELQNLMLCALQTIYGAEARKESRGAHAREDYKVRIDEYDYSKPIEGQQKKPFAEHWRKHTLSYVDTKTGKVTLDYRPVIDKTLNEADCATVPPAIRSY
T1 sequence (P21913 31-282): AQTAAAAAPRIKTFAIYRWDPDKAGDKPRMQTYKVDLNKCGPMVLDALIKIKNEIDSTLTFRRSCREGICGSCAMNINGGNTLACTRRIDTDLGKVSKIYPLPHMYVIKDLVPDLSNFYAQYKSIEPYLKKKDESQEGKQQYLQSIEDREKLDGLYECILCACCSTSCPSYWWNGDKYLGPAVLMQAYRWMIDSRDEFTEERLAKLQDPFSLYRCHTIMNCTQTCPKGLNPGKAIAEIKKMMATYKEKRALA
T1 sequence (Q641Z9 1-169): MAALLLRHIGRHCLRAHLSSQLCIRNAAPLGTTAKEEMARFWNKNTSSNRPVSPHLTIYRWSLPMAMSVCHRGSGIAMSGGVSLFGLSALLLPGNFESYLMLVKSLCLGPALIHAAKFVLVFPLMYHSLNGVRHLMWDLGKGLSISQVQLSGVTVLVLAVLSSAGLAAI
T1 sequence (Q6PCT8 57-159): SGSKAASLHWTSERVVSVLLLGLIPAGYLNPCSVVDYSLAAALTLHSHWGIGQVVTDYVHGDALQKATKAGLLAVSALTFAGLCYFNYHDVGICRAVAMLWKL

[6] = system: isolated rat liver mitochondria; test: Oxygen consumption, Clark-type oxygen electrode; type: biochemical
HepG2 cells [7] = test: ROS-Glo hydrogen peroxide (ROS) assay; type: cell-based, human
[8] = system: mitochondrial respiratory chain complex IV; type: biochemical, rat
HepG2 cells [9] = test: cells; conditions: Homo sapiens; for Emax: HepG2, read-out: MMP assays efficacy (%) HepG2
HepG2 cells [10] = test: Intracellular ATP content (cell viability) assay; type: cell-based, human; conditions: Homo sapiens
[11] = system: Caenorhabditis elegans (Bristol N2); test: C. elegans larval development and growth assay
[12] = system: Caenorhabditis elegans strain PE255; test: In vivo C. elegans ATP status assay
[13] = system: mitochondrial respiratory chain complex I; type: biochemical, rat
hNSC = test: MMP assay in human neural stem cells (hNSC); type: cell-based; conditions: Homo sapiens, Neural stem cell, read-out: hNSC IC50 (MMP)
[14] = system: mitochondrial respiratory chain complex III; type: biochemical, rat
rat primary hepatocytes [15] = test: MMP assay in rat primary hepatocytes; conditions: for IC50: Rattus norvegicus, Hepatocyte
[16] = system: p53 (p53-bla HCT-116 cells); test: p53 β-lactamase reporter gene assay; type: cell-based, human; conditions: 16 h incubation; mean±SD of three experiments
rat primary hepatocytes [17] = system: rat primary hepatocytes
[18] = system: Caenorhabditis elegans (Bristol N2); conditions: Bristol N2 (wild type), Caenorhabditis elegans, in vivo
[19] = HepG2, 1 h, read-out: HepG2 IC50 Galactose (MMP)
[20] = HepG2, 1 h, read-out: HepG2 IC50 Glucose (MMP)
[21] = 1 h, read-out: Rat hepatocytes IC50 (MMP)
[22] = read-out: MMP assays IC50 (µM) Rat Hepatocytes

**Q.** Which results are given for `COc1cc2c(cc1OC)-c1cc3ccc(OC)c(OC)c3c[n+]1CC2` [Palmatine chloride hydrate]?
**A.** ARE (HepG2) EC50 [1]: Inactive; Complex V % inhibition (activity call) [2]: Inactive; Parkin recruitment ([3]; HeLa cells stably expressing YFP-Parkin, treated for 2 h): Inactive; MMP assays efficacy (%) qHTS-HepG2 (HepG2 cells [4]): -99±8%; IC50 (HepG2 cells [4]; read-out: MMP assays IC50 (µM), qHTS-HepG2): 22.7 ± 5.23 µM; Complex II % inhibition (activity call) [5]: Inactive; I-ADP, % of control (O2 consumption rate) ([6]; 0.8 µM, glutamate/malate driven state 3 respiration, isolated rat liver mitochondria): 91 (32.3) % of control; I-sub, % of control (O2 consumption rate) ([6]; 0.8 µM, glutamate/malate driven state 4 respiration, isolated rat liver mitochondria): 114 (10.9) % of control; II-ADP, % of control (O2 consumption rate) ([6]; 0.8 µM, succinate-driven state 3 respiration, isolated rat liver mitochondria): 96 (51.6) % of control; II-sub, % of control (O2 consumption rate) ([6]; 0.8 µM, succinate-driven state 4 respiration, isolated rat liver mitochondria): 119 (19.5) % of control; I-ADP, % of control (O2 consumption rate) ([6]; 4 µM, glutamate/malate driven state 3 respiration, isolated rat liver mitochondria): 76 (27.3) % of control; I-sub, % of control (O2 consumption rate) ([6]; 4 µM, glutamate/malate driven state 4 respiration, isolated rat liver mitochondria): 105 (10.1) % of control; II-ADP, % of control (O2 consumption rate) ([6]; 4 µM, succinate-driven state 3 respiration, isolated rat liver mitochondria): 89 (47.6) % of control; II-sub, % of control (O2 consumption rate) ([6]; 4 µM, succinate-driven state 4 respiration, isolated rat liver mitochondria): 103 (16.9) % of control; I-ADP, % of control (O2 consumption rate) ([6]; 20 µM, glutamate/malate driven state 3 respiration, isolated rat liver mitochondria): 70 (25.0) % of control; I-sub, % of control (O2 consumption rate) ([6]; 20 µM, glutamate/malate driven state 4 respiration, isolated rat liver mitochondria): 114 (10.9) % of control; II-ADP, % of control (O2 consumption rate) ([6]; 20 µM, succinate-driven state 3 respiration, isolated rat liver mitochondria): 85 (45.5) % of control; II-sub, % of control (O2 consumption rate) ([6]; 20 µM, succinate-driven state 4 respiration, isolated rat liver mitochondria): 116 (19.1) % of control; I-ADP, % of control (O2 consumption rate) ([6]; 100 µM, glutamate/malate driven state 3 respiration, isolated rat liver mitochondria): 77 (35.3) % of control; I-sub, % of control (O2 consumption rate) ([6]; 100 µM, glutamate/malate driven state 4 respiration, isolated rat liver mitochondria): 172 (26.6) % of control; II-ADP, % of control (O2 consumption rate) ([6]; 100 µM, succinate-driven state 3 respiration, isolated rat liver mitochondria): 56 (40.4) % of control; II-sub, % of control (O2 consumption rate) ([6]; 100 µM, succinate-driven state 4 respiration, isolated rat liver mitochondria): 114 (35.8) % of control; Potential Mechanism ([6]; mitochondrial respiration in isolated rat liver mitochondria, Clark type oxygen electrode, over tested concentrations): Uncoupler + Inhibitor; ROS (HepG2) EC50 (HepG2 cells [7]; 2 h treatment, mean±SD of three experiments): Inactive; Complex IV % inhibition (activity call) [8]: Inactive; IC50 (HepG2 cells [9]; [19]): 70.6 ± 4.79 µM; IC50 (HepG2 cells [9]; [20]): 55.7 ± 17.9 µM; IC50 (HepG2 cells [9]; HepG2, read-out: MMP assays IC50 (µM) HepG2): 12.6 µM; Emax (HepG2 cells [9]): 86%; IC50 (HepG2 cells [10]; HepG2, 5 mM glucose, 40 h treatment, mean±SD of three experiments, read-out: ATP (HepG2, glucose) IC50): 19 ± 9.49 µM; IC50 (HepG2 cells [10]; HepG2, 10 mM galactose, 40 h treatment, mean±SD of three experiments, read-out: ATP (HepG2, galactose) IC50): 27.1 ± 8.93 µM; EXT: mean difference in nematode size relative to plate controls ([11]; 0.5 µM): -0.01207; EXT: mean difference in nematode size relative to plate controls ([11]; 1 µM): -0.07266; EXT: mean difference in nematode size relative to plate controls ([11]; 5 µM): -0.05419; EXT: mean difference in nematode size relative to plate controls ([11]; 10 µM): -0.03134; EXT: mean difference in nematode size relative to plate controls ([11]; 25 µM): 0.08842; EXT: mean difference in nematode size relative to plate controls ([11]; 50 µM): 0.1943; LUM: mean difference in luminescence (ATP content) relative to plate controls ([12]; 0.5 µM): 1.192; LUM: mean difference in luminescence (ATP content) relative to plate controls ([12]; 1 µM): -0.05262; LUM: mean difference in luminescence (ATP content) relative to plate controls ([12]; 5 µM): 0.04332; LUM: mean difference in luminescence (ATP content) relative to plate controls ([12]; 10 µM): -0.02063; LUM: mean difference in luminescence (ATP content) relative to plate controls ([12]; 25 µM): -0.0762; LUM: mean difference in luminescence (ATP content) relative to plate controls ([12]; 50 µM): 0.2026; LUM: mean difference in luminescence (ATP content) relative to plate controls ([12]; 75 µM): 0.01325; LUM: mean difference in luminescence (ATP content) relative to plate controls ([12]; 100 µM): 0.2556; Complex I % inhibition ([13]; at 100μM): 12.3±3.05 at 100μM %; IC50 (hNSC; 1 h treatment, fresh re-sourced stocks, mean±SD of three experiments): 34.1 ± 11.2 µM; Complex III % inhibition (activity call) [14]: Inactive; Rat hepatocytes (efficacy) (MMP) (rat primary hepatocytes [15]; % of positive control, mean±SD of three experiments): −101±2.09%; IC50 (rat primary hepatocytes [15]; [21]): 6.74 ± 2.89 µM; IC50 (rat primary hepatocytes [15]; [22]): 1.37 ± 0.7 µM; MMP assays efficacy (%) Rat Hepatocytes (rat primary hepatocytes [15]; rat hepatocytes, mean ± SD of three experiments): -72±21%; p53 (HCT-116) EC50 [16]: Inactive

**Q.** What does the source list for `C=C(c1ccc(C(=O)O)cc1)c1cc2c(cc1C)C(C)(C)CCC2(C)C` [Bexarotene, reference compound]?
**A.** EC50 ([1]; Homo sapiens, HepG2, read-out: ARE (HepG2) EC50): 11.5 ± 0.75 µM; MMP assays efficacy (%) Rat Hepatocytes (rat primary hepatocytes [17]): -112±7%; Rat hepatocytes (efficacy) (MMP) (rat primary hepatocytes [17]): 39.9±5.09 ( −93.8±8.55 ) %; Complex V % inhibition (activity call) [2]: Inactive; LEC (lowest effect concentration), larval growth assay [18]: ≤ 10 µM; Parkin recruitment [3]: Inactive; MMP assays efficacy (%) qHTS-HepG2 (HepG2 cells [4]): -124±6%; IC50 (HepG2 cells [4]; read-out: MMP assays IC50 (µM) qHTS-HepG2): 16.5 ± 3.95 µM; Complex II % inhibition (activity call) [5]: Inactive; Potential Mechanism [6]: Uncoupler + inhibitor; I-ADP, % of control (O2 consumption rate) ([6]; 0.8 µM): 92 (45.5) % of control; I-sub, % of control (O2 consumption rate) ([6]; 0.8 µM): 108 (17.4) % of control; II-ADP, % of control (O2 consumption rate) ([6]; 0.8 µM): 84 (65.0) % of control; II-sub, % of control (O2 consumption rate) ([6]; 0.8 µM): 93 (28.5) % of control; I-ADP, % of control (O2 consumption rate) ([6]; 4 µM): 86 (42.6) % of control; II-ADP, % of control (O2 consumption rate) ([6]; 4 µM): 81 (62.5) % of control; II-sub, % of control (O2 consumption rate) ([6]; 4 µM): 97 (29.8) % of control; I-ADP, % of control (O2 consumption rate) ([6]; 20 µM): 61 (29.8) % of control; I-sub, % of control (O2 consumption rate) ([6]; 20 µM): 155 (25.0) % of control; II-ADP, % of control (O2 consumption rate) ([6]; 20 µM): 39 (30.1) % of control; II-sub, % of control (O2 consumption rate) ([6]; 20 µM): 107 (32.7) % of control; I-ADP, % of control (O2 consumption rate) ([6]; 100 µM): 5 (2.8) % of control; I-sub, % of control (O2 consumption rate) ([6]; 100 µM): 36 (4.9) % of control; II-ADP, % of control (O2 consumption rate) ([6]; 100 µM): 6 (3.8) % of control; II-sub, % of control (O2 consumption rate) ([6]; 100 µM): 24 (5.1) % of control; ROS (HepG2) EC50 (HepG2 cells [7]): Inactive; Complex IV % inhibition (activity call) [8]: Inactive; IC50 (HepG2 cells [9]; [19]): 50.2 µM; IC50 (HepG2 cells [9]; [20]): 50 µM; Emax (HepG2 cells [9]): 106%; IC50 (HepG2 cells [10]; HepG2, 40 h, read-out: ATP (HepG2, galactose) IC50): 63.2 µM; IC50 (HepG2 cells [10]; HepG2, 40 h, read-out: ATP (HepG2, glucose) IC50): 63.2 µM; minimal effective concentration ([11]; Caenorhabditis elegans, read-out: LEC EXT: lowest effect concentration for extinction, a measure of nematode size): 10 µM; Complex I % inhibition (activity call) [13]: Inactive; IC50 (hNSC; 1 h): 22.3 µM; Complex III % inhibition (activity call) [14]: Inactive; IC50 (rat primary hepatocytes [15]; [21]): 39.9 µM; IC50 (rat primary hepatocytes [15]; [22]): 9.08 ± 1.16 µM
